According to patent publication EP0384722A1, “Chemical compositions” (PITMAN-MOORE LIMITED, priority 1989, dated 1990):
Where two headings read alike, the source gives them in different places. Blank lines part the entries; values can stand above or below the compound they belong to.

Tests used:
[1] = Comparison of bioavailability of Compound A and Trimethoprim (TMP) administered by i/v injection, dogs; assay type: in vivo; conditions: i/v injection at 2 mg/kg; for half-life: both sexes, dog, read-out: Est.t1/2 (converted); for half-life / concentration at 0 h / concentration at 1 h / concentration at 3 h / concentration at 5 h / concentration at 7 h / concentration at 24 h / concentration at 30 h / concentration at 48 h: beagle, intravenous, serum; for concentration at 0 h: 0 hours post inj.; for concentration at 1 h: 1 hours post inj.; for concentration at 3 h: 3 hours post inj.; for concentration at 5 h: 5 hours post inj.; for concentration at 7 h: 7 hours post inj.; for concentration at 24 h: 24 hours post inj.; for concentration at 30 h: 30 hours post inj.; for concentration at 48 h: 48 hours post inj.
Experimental: One male beagle dog, 13.5 kg and one female beagle, 11.1kg, both aged about 18 months, received i/v injections (cephalic vein) of the test compounds at 2mg base/kg, using 15mg base /ml aqueous solutions.

[2] = Comparison of bioavailability of Compound A and Trimethoprim (TMP) administered by i/v injection, cats; assay type: in vivo; conditions: serum, i/v injection at 2 mg/kg; for Est.t1/2 / half-life: cats; for half-life / concentration at 0 h / concentration at 1 h / concentration at 3 h / concentration at 5 h / concentration at 7 h / concentration at 24 h: female, cat, intravenous; for half-life: read-out: Est.t1/2 (converted); for concentration at 0 h / concentration at 1 h / concentration at 3 h / concentration at 5 h / concentration at 7 h / concentration at 24 h: 2 mg/kg; for concentration at 0 h: 0 hours post inj.; for concentration at 1 h: 1 hours post inj.; for concentration at 3 h: 3 hours post inj.; for concentration at 5 h: 5 hours post inj.; for concentration at 7 h: 7 hours post inj.; for concentration at 24 h: 24 hours post inj.
Experimental: Two young adult female cats, bodyweight around 3 kg, were given i/v injections at 2 mg/kg of TMP or Compound A, using 3 mg/base ml aqueous solutions.

[3] = female, dog F, read-out: Serum conc. of Compound A
[4] = male, dog M, read-out: Serum conc. of Compound A
[5] = cat 3, read-out: Serum conc. of Compound A
[6] = cat 4, read-out: Serum conc. of Compound A
[7] = female, dog F, read-out: Serum conc. of TMP
[8] = male, dog M, read-out: Serum conc. of TMP
[9] = cat 1, read-out: Serum conc. of TMP
[10] = cat 2, read-out: Serum conc. of TMP

half-life ([1]; dogs): 15 h
concentration at 0 h [1, 3]: 0 ng/mL
concentration at 1 h [1, 3]: 410 ng/mL
concentration at 3 h [1, 3]: 340 ng/mL
concentration at 5 h [1, 3]: 300 ng/mL
concentration at 7 h [1, 3]: 290 ng/mL
concentration at 24 h [1, 3]: 124 ng/mL
concentration at 30 h [1, 3]: 100 ng/mL
concentration at 48 h [1, 3]: 46 ng/mL
concentration at 0 h [1, 4]: 0 ng/mL
concentration at 1 h [1, 4]: 240 ng/mL
concentration at 3 h [1, 4]: 270 ng/mL
concentration at 5 h [1, 4]: 260 ng/mL
concentration at 7 h [1, 4]: 250 ng/mL
concentration at 24 h [1, 4]: 110 ng/mL
concentration at 48 h [1, 4]: 39 ng/mL
Est.t1/2 [2]: 2.4 h
half-life [2]: 2.4 h
concentration at 0 h [2, 5]: 0 ng/mL
concentration at 1 h [2, 5]: 320 ng/mL
concentration at 3 h [2, 5]: 160 ng/mL
concentration at 5 h [2, 5]: 100 ng/mL
concentration at 7 h [2, 5]: 72 ng/mL
concentration at 24 h [2, 5]: 0 ng/mL
concentration at 0 h [2, 6]: 0 ng/mL
concentration at 1 h [2, 6]: 310 ng/mL
concentration at 3 h [2, 6]: 140 ng/mL
concentration at 5 h [2, 6]: 86 ng/mL
concentration at 24 h [2, 6]: 0 ng/mL
Compound: Cc1cc(Cc2cnc(N)nc2N)c2cccnc2c1N(C)C [Compound A, 2,4-diamino-5-(8-dimethylamino-7-methyl-5-quinolylmethyl) pyrimidine]
half-life in comparison with TMP ([1]; dogs): greatly extended half-life in comparison with TMP

half-life ([1]; dogs): 2.6 h
concentration at 0 h [1, 7]: 0 ng/mL
concentration at 1 h [1, 7]: 1200 ng/mL
concentration at 3 h [1, 7]: 740 ng/mL
concentration at 5 h [1, 7]: 310 ng/mL
concentration at 7 h [1, 7]: 210 ng/mL
concentration at 24 h [1, 7]: 0 ng/mL
concentration at 30 h [1, 7]: 0 ng/mL
concentration at 48 h [1, 7]: 0 ng/mL
concentration at 0 h [1, 8]: 0 ng/mL
concentration at 1 h [1, 8]: 1100 ng/mL
concentration at 3 h [1, 8]: 800 ng/mL
concentration at 5 h [1, 8]: 400 ng/mL
concentration at 7 h [1, 8]: 260 ng/mL
concentration at 24 h [1, 8]: 0 ng/mL
concentration at 30 h [1, 8]: 0 ng/mL
concentration at 48 h [1, 8]: 0 ng/mL
Est.t1/2 [2]: 0.75 h
half-life [2]: 0.75 h
concentration at 0 h [2, 9]: 0 ng/mL
concentration at 1 h [2, 9]: 460 ng/mL
concentration at 3 h [2, 9]: 60 ng/mL
concentration at 5 h [2, 9]: 0 ng/mL
concentration at 7 h [2, 9]: 0 ng/mL
concentration at 24 h [2, 9]: 0 ng/mL
concentration at 0 h [2, 10]: 0 ng/mL
concentration at 1 h [2, 10]: 440 ng/mL
concentration at 3 h [2, 10]: 84 ng/mL
concentration at 5 h [2, 10]: 0 ng/mL
concentration at 7 h [2, 10]: 0 ng/mL
concentration at 24 h [2, 10]: 0 ng/mL
Compound: COc1cc(Cc2cnc(N)nc2N)cc(OC)c1OC [TMP, trimethoprim]
